PubChem BioAssay AID250 (DTP/NCI, 2004)
“And” between values parts separate entries of the source, which are not always exact repeats. Equal values may be shown once. Inconclusive results and toxic doses are left out.

Tested on: BDF1 mice, L1210 leukemia sc, survival T/C
Experiment: NCI In Vivo Anticancer Drug Screen. Data for tumor model L1210 Leukemia (subcutaneous) in B6D2F1 (BDF1) mice
Conditions: endpoint: median survival time, higher = longer survival
Summary of the method: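 Antitumor activity is assessed in mice with transplanted tumors by comparing the treated group (T) with the vehicle control group (C).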

[1] = dose: 39.0 mg/kg/injection, schedule: Q01DX Z (sc), vehicle: methylcellulose (MC)
[2] = dose: 65.0 mg/kg/injection, schedule: Q01DX Z (sc), vehicle: carboxymethylcellulose (CMC)
[3] = dose: 65.0 mg/kg/injection, schedule: Q01DX Z (sc), vehicle: methylcellulose (MC)
[4] = dose: 108.0 mg/kg/injection, schedule: Q01DX Z (sc), vehicle: carboxymethylcellulose (CMC)
[5] = dose: 108.0 mg/kg/injection, schedule: Q01DX Z (sc), vehicle: methylcellulose (MC)
[6] = dose: 180.0 mg/kg/injection, schedule: Q01DX Z (sc), vehicle: methylcellulose (MC)
[7] = dose: 300.0 mg/kg/injection, schedule: Q01DX Z (sc), vehicle: methylcellulose (MC)
[8] = dose: 38.9 mg/kg/injection, schedule: Q01DX Z (sc), vehicle: methylcellulose (MC)
[9] = dose: 64.8 mg/kg/injection, schedule: Q01DX Z (sc), vehicle: methylcellulose (MC)

## Nc1ncc(N)c(N)n1
[1]
  T/C: 100 % of control
[2]
  T/C: 100 % of control
[3]
  T/C: 100 % of control
[4]
  T/C: 107 % of control
[5]
  T/C: 100 % of control
dose: 180.0 mg/kg/injection, schedule: Q01DX Z (sc), vehicle: carboxymethylcellulose (CMC)
  T/C: 100 % of control
[6]
  T/C: 100 % of control
dose: 300.0 mg/kg/injection, schedule: Q01DX Z (sc), vehicle: carboxymethylcellulose (CMC)
  T/C: 100 % of control
[7]
  T/C: 100 % of control
dose: 500.0 mg/kg/injection, schedule: Q01DX Z (sc), vehicle: carboxymethylcellulose (CMC)
  T/C: 100 % of control

## OCC1OC(n2cnc3c(Cl)ncnc32)C(O)C1O (stereo not drawn)
[1]
  T/C: 100 % of control
[3]
  T/C: 100 % of control
[5]
  T/C: 100 % of control
[6]
  T/C: 100 % of control
[7]
  T/C: 95 % of control and 100 % of control
dose: 500.0 mg/kg/injection, schedule: Q01DX Z (sc), vehicle: methylcellulose (MC)
  T/C: 94 % of control and 105 % of control
dose: 833.0 mg/kg/injection, schedule: Q01DX Z (sc), vehicle: methylcellulose (MC)
  T/C: 105 % of control

## CC(=O)OCC(=O)[C@@]1(O)CC[C@H]2[C@@H]3C[C@H](F)C4=CC(=O)CC[C@]4(C)[C@H]3[C@@H](O)C[C@@]21C
dose: 8.4 mg/kg/injection, schedule: Q01DX Z (sc), vehicle: steriod suspending solution
  T/C: 100 % of control
dose: 14.0 mg/kg/injection, schedule: Q01DX Z (sc), vehicle: steriod suspending solution
  T/C: 100 % of control
dose: 23.0 mg/kg/injection, schedule: Q01DX Z (sc), vehicle: steriod suspending solution
  T/C: 111 % of control
dose: 39.0 mg/kg/injection, schedule: Q01DX Z (sc), vehicle: steriod suspending solution
  T/C: 155 % of control
dose: 65.0 mg/kg/injection, schedule: Q01DX Z (sc), vehicle: steriod suspending solution
  T/C: 155 % of control
dose: 108.0 mg/kg/injection, schedule: Q01DX Z (sc), vehicle: steriod suspending solution
  T/C: 150 % of control
dose: 180.0 mg/kg/injection, schedule: Q01DX Z (sc), vehicle: steriod suspending solution
  T/C: 161 % of control

## C=CCNC(=O)NCC=C
dose: 100.0 mg/kg/injection, schedule: Q01DX001 (ip), vehicle: saline
  T/C: 105 % of control
dose: 100.0 mg/kg/injection, schedule: Q01DX001 (sc), vehicle: saline
  T/C: 111 % of control
dose: 100.0 mg/kg/injection, schedule: Q04DX003 (ip), vehicle: saline
  T/C: 111 % of control
dose: 100.0 mg/kg/injection, schedule: Q04DX003 (sc), vehicle: saline
  T/C: 111 % of control
dose: 200.0 mg/kg/injection, schedule: Q01DX001 (ip), vehicle: saline
  T/C: 111 % of control
dose: 200.0 mg/kg/injection, schedule: Q01DX001 (sc), vehicle: saline
  T/C: 111 % of control
dose: 200.0 mg/kg/injection, schedule: Q01DX009 (ip), vehicle: saline
  T/C: 150 % of control
dose: 200.0 mg/kg/injection, schedule: Q04DX003 (ip), vehicle: saline
  T/C: 122 % of control

## O=c1[nH]c(=O)n([C@H]2CCCO2)cc1F
dose: 39.0 mg/kg/injection, schedule: Q01DX009 (ip), vehicle: water
  T/C: 107 % of control
dose: 39.0 mg/kg/injection, schedule: Q01DX009 (sc), vehicle: water
  T/C: 100 % of control
dose: 65.0 mg/kg/injection, schedule: Q01DX009 (ip), vehicle: water
  T/C: 108 % of control
dose: 65.0 mg/kg/injection, schedule: Q01DX009 (sc), vehicle: water
  T/C: 109 % of control
dose: 108.0 mg/kg/injection, schedule: Q04DX003 (ip), vehicle: water
  T/C: 119 % of control
dose: 108.0 mg/kg/injection, schedule: Q04DX003 (sc), vehicle: water
  T/C: 102 % of control
dose: 180.0 mg/kg/injection, schedule: Q01DX009 (ip), vehicle: water
  T/C: 120 % of control
dose: 180.0 mg/kg/injection, schedule: Q01DX009 (sc), vehicle: water
  T/C: 117 % of control
dose: 180.0 mg/kg/injection, schedule: Q04DX003 (ip), vehicle: water
  T/C: 120 % of control
dose: 180.0 mg/kg/injection, schedule: Q04DX003 (sc), vehicle: water
  T/C: 110 % of control
dose: 300.0 mg/kg/injection, schedule: Q01DX009 (ip), vehicle: water
  T/C: 97 % of control
dose: 300.0 mg/kg/injection, schedule: Q01DX009 (sc), vehicle: water
  T/C: 100 % of control
dose: 300.0 mg/kg/injection, schedule: Q04DX003 (ip), vehicle: water
  T/C: 152 % of control
dose: 500.0 mg/kg/injection, schedule: Q04DX003 (sc), vehicle: water
  T/C: 161 % of control
dose: 833.0 mg/kg/injection, schedule: Q04DX003 (ip), vehicle: water
  T/C: 168 % of control
dose: 833.0 mg/kg/injection, schedule: Q04DX003 (sc), vehicle: water
  T/C: 106 % of control

## OCC1OC(n2cnc3c(=S)nc[nH]c32)C(O)C1O (stereo not drawn)
[8]
  T/C: 110 % of control
dose: 50.0 mg/kg/injection, schedule: Q03HX024 (ip), vehicle: other
  T/C: 150 % of control
[9]
  T/C: 155 % of control
dose: 100.0 mg/kg/injection, schedule: Q03HX024 (ip), vehicle: other
  T/C: 155 % of control
dose: 100.0 mg/kg/injection, schedule: Q03HX024 (sc), vehicle: other
  T/C: 155 % of control
[5]
  T/C: 160 % of control
[6]
  T/C: 150 % of control
dose: 200.0 mg/kg/injection, schedule: Q03HX024 (ip), vehicle: other
  T/C: 161 % of control
dose: 200.0 mg/kg/injection, schedule: Q03HX024 (sc), vehicle: other
  T/C: 155 % of control
[7]
  T/C: 150 % of control
dose: 400.0 mg/kg/injection, schedule: Q01DX009 (ip), vehicle: other
  T/C: 155 % of control
dose: 400.0 mg/kg/injection, schedule: Q01DX009 (sc), vehicle: other
  T/C: 150 % of control
dose: 400.0 mg/kg/injection, schedule: Q03HX024 (ip), vehicle: other
  T/C: 155 % of control
dose: 400.0 mg/kg/injection, schedule: Q03HX024 (sc), vehicle: other
  T/C: 105 % of control
dose: 800.0 mg/kg/injection, schedule: Q01DX009 (ip), vehicle: other
  T/C: 155 % of control
dose: 800.0 mg/kg/injection, schedule: Q01DX009 (sc), vehicle: other
  T/C: 161 % of control
dose: 1600.0 mg/kg/injection, schedule: Q01DX009 (ip), vehicle: other
  T/C: 122 % of control
dose: 1600.0 mg/kg/injection, schedule: Q01DX009 (sc), vehicle: other
  T/C: 155 % of control
dose: 3200.0 mg/kg/injection, schedule: Q01DX009 (sc), vehicle: other
  T/C: 111 % of control
dose: 3200.0 mg/kg/injection, schedule: Q04DX003 (sc), vehicle: other
  T/C: 150 % of control

## CCCC(=O)NC1=C(N2CC2)C(=O)C(NC(=O)CCC)=C(N2CC2)C1=O
dose: 1.8 mg/kg/injection, schedule: Q01DX Z (sc), vehicle: saline
  T/C: 100 % of control
dose: 3.0 mg/kg/injection, schedule: Q01DX Z (sc), vehicle: saline
  T/C: 111 % of control
dose: 8.4 mg/kg/injection, schedule: Q01DX Z (sc), vehicle: saline
  T/C: 183 % of control
dose: 14.0 mg/kg/injection, schedule: Q01DX Z (sc), vehicle: saline
  T/C: 150 % of control
dose: 23.0 mg/kg/injection, schedule: Q01DX Z (sc), vehicle: saline
  T/C: 122 % of control

## CCCSc1ncnc2nc[nH]c12
[8]
  T/C: 100 % of control
[9]
  T/C: 100 % of control
[5]
  T/C: 100 % of control
[6]
  T/C: 120 % of control
[7]
  T/C: 110 % of control

## c1ccc2[nH]cnc2c1
dose: 14.0 mg/kg/injection, schedule: Q01DX Z (sc), vehicle: other
  T/C: 100 % of control
dose: 300.0 mg/kg/injection, schedule: Q01DX Z (sc), vehicle: other
  T/C: 100 % of control
dose: 500.0 mg/kg/injection, schedule: Q01DX Z (sc), vehicle: other
  T/C: 100 % of control

## Nc1nc(=S)c2ncn(C3OC(COC(=O)c4ccc(Cl)cc4)C(OC(=O)c4ccc(Cl)cc4)C3OC(=O)c3ccc(Cl)cc3)c2[nH]1 (stereo not drawn)
dose: 12.5 mg/kg/injection, schedule: Q01DX Z (sc), vehicle: carboxymethylcellulose (CMC)
  T/C: 100 % of control
dose: 25.0 mg/kg/injection, schedule: Q01DX Z (sc), vehicle: carboxymethylcellulose (CMC)
  T/C: 106 % of control
dose: 50.0 mg/kg/injection, schedule: Q01DX Z (sc), vehicle: carboxymethylcellulose (CMC)
  T/C: 100 % of control
[2]
  T/C: 100 % of control
dose: 100.0 mg/kg/injection, schedule: Q01DX Z (sc), vehicle: carboxymethylcellulose (CMC)
  T/C: 112 % of control
[4]
  T/C: 122 % of control
dose: 200.0 mg/kg/injection, schedule: Q01DX Z (sc), vehicle: carboxymethylcellulose (CMC)
  T/C: 150 % of control
